For test [1], the system named is Columbia SK virus. Kind of test: Antiviral effects against an interferon-sensitive virus, Columbia SK. Type of test: in vivo, Taconic Farms male, white mice. The note with it: 400 mg/kg oral, 18 hours before infection; 14 days post injection. On the procedure:
Taconic Farms male, white mice, weighing 18-24 g were treated by gavage, 18 hours before infection with a test compound suspended or dissolved in 1.0 ml of 0.2% aqueous agar solution. The mice were then infected by subcutaneous injection with one LD95 of Columbia SK virus in 0.2 ml of distilled water. Groups of infected, untreated mice were used as controls to show the lethality of the infection. The test duration was 14 days.

Test [2] relates to Rauscher Virus-Induced Leukemia. Briefly: Inhibition of splenomegaly in mice with Rauscher virus-induced leukemia. It counts as in vivo, Balb/c mice.
Test [3] shares this test system. Kind of test: Restoration of antibody formation in mice with Rauscher virus-induced leukemia. Type of test: in vivo, Balb/c mice.
Test [4] relates to Columbia SK virus. Kind of test: Protection of mice against lethal Columbia SK virus infection by oral pre-treatment. Type of test: in vivo, random-bred Swiss male mice. To be noted: 200 mg/kg oral. The procedure:
At 24, 48, 72 and 96 hours after drug treatment, separate groups of mice were injected SC with an LD95 dose of the interferon sensitive virus, Columbia SK. […] Typically, protection from lethal infection with Columbia SK virus is associated with induction of interferon.

The subject of test [5] is natural killer lymphocytes (NK cells). Briefly: Stimulation of NK-cell activity in normal mice. To be noted: 10 mg/kg intraperitoneal.

Where a name gives a salt, the structure may show the parent alone.

Take `CCN(CC)C(C)COc1ccc2cc3ccc(OCC(C)N(CC)CC)cc3nc2c1.Cl.Cl.Cl` (stereo not shown) [3,6-Bis(2-diethylaminopropoxy)acridine . 3HCl]: the Survivors/Total in the test with Columbia SK virus [1] was 13/15.

On to `CCNCCOc1ccc2cc3ccc(OCCNCC)cc3nc2c1.Cl.Cl.Cl` [3,6-Bis(2-ethylaminoethoxy)acridine trihydrochloride], for which the Survivors/Total in the test with Columbia SK virus [1] is on record as 10/15. In test [2] (100 mg/kg), the “% Reduction in splenomegaly” value came out at 89%.

As to `CCN(CC)CCOc1ccc2cc3ccc(OCCN(CC)CC)c(Cl)c3nc2c1Cl` [3,6-bis(2-diethylaminoethoxy)-4,5-dichloroacridine], in the test with Columbia SK virus [1], the Survivors/Total was 7/15. Besides, the “Serum hemagglutinin titer/saline control titer” value in test [3] (100 mg/kg oral) was 128/16. In test [2] (50 mg/kg), the “% Reduction in splenomegaly” value is on record as 86%.

As to `CC(C)NCCOc1ccc2cc3ccc(OCCNC(C)C)cc3nc2c1.Cl.Cl.Cl` [3,6-bis(2-isopropylaminoethoxy)acridine trihydrochloride], the Survivors/Total in the test with Columbia SK virus [1] is reported as 15/15. For the same molecule, in test [3] (100 mg/kg oral), the “Serum hemagglutinin titer/saline control titer” value is 512/32. Also, in test [2] (200 mg/kg), the “% Reduction in splenomegaly” value was 96%.

In the case of `Cl.Cl.Cl.c1cc2cc3ccc(OCCN4CCCCC4)cc3nc2cc1OCCN1CCCCC1` [3,6-bis(2-piperidinoethoxy)acridine trihydrochloride], the Survivors/Total with Columbia SK virus [1] is 12/15. Further, the “Serum hemagglutinin titer/saline control titer” value in test [3] (100 mg/kg oral) is 256/16. For the same molecule, the “% Reduction in splenomegaly” value in test [2] (100 mg/kg) is 84%.

On to `c1cc2cc3ccc(OCCCN4CCCCC4)cc3nc2cc1OCCCN1CCCCC1` [3,6-bis[3-(1-piperidino)propoxy]acridine trihydrochloride], for which the Survivors/Total in the test on Columbia SK virus [1] is 12/15. The “Serum hemagglutinin titer/saline control titer” value in test [3] (50 mg/kg oral) is 1024/32. The “% Reduction in splenomegaly” value in test [2] (50 mg/kg) is recorded as 74%.

Consider `CCN(CC)CCOc1ccc2c(c1)C(=O)c1cc(OCCN(CC)CC)ccc1-2` [Tilorone, tilorone hydrochloride, reference compound], for which the “Survivors/Total (14 Days)” value in the test on Columbia SK virus [4] (-24 hr relative to virus challenge, * p <.01) is recorded as 18/20; in the test with Columbia SK virus [4] (-48 hr relative to virus challenge, * p <.01), 15/20; with Columbia SK virus [4] (-72 hr relative to virus challenge, * p <.01), 9/20; with Columbia SK virus [4] (-96 hr relative to virus challenge) it was 8/20.

On to “polyinosinic acid:polycytidylic acid [Poly I:C, reference compound]”, for which the “Serum hemagglutinin titer/saline control titer” value in test [3] (10 mg/kg IP) is listed as 1024/32. Also, the “% Cytotoxicity” value is 24.7% in test [5] (Test 1 (CD1 mice), * p <.05) and 36.1% in test [5] (Test 2 (BDF1 hybrids)).

The values above are taken from patent US4314061A, “Certain 3,6-bis-(heteroaminoalkoxy) acridines” (priority 1980, dated 1982).
